Measurements reported in PMC6931042 (Bioorganic chemistry, 2018).
pIC50: −log10 of the molar value. Several values for one entry are separate records, joined by “and”; a condition that tells them apart may be missing. Equal entries are not always repeated.

How the values were obtained:
UACC-62 = test: NCI in vitro five dose anticancer assay; assay type: cell-based, human; conditions: Melanoma, five dose assay
A549 cells = test: Apoptosis, annexin V-FITC/PI flow cytometry; assay type: cell-based, human; conditions: for percentage of apoptotic cells: 48 h
NCI-H226 = test: NCI in vitro five dose anticancer assay; assay type: cell-based, human; conditions: Non-small cell lung cancer, five dose assay
MDA-MB-468 = test: NCI in vitro five dose anticancer assay; assay type: cell-based, human; conditions: Breast cancer, five dose assay
[1] = system: chronic myeloid leukemia K-562; test: Trypan blue exclusion cytotoxicity assay; conditions: read-out: K-562 (IC50 μM); trypan blue exclusion; 24 h; mean ± SD
M14 = test: NCI in vitro five dose anticancer assay; assay type: cell-based, human; conditions: Melanoma, five dose assay
A549 and K-562 cells = test: Cytotoxicity IC50 stated jointly for the 2 cell lines; assay type: cell-based, human; conditions: read-out: IC50 against the 2 cell lines tested; range over A549 and K-562
A498 = test: NCI in vitro five dose anticancer assay; assay type: cell-based, human; conditions: Renal cancer, five dose assay
[2] = system: Bax and cleaved caspases (3, 8, and 9) in K-562 cells; test: Western blotting, apoptosis markers; assay type: cell-based, human; conditions: 24 h, 1, 3 and 6 μM, western blot
HCT-116 = test: NCI in vitro five dose anticancer assay; assay type: cell-based, human; conditions: Colon cancer, five dose assay
SK-MEL-5 = test: NCI in vitro five dose anticancer assay; assay type: cell-based, human; conditions: Melanoma, five dose assay
K-562 cells [3] = test: Cell cycle analysis by flow cytometry; assay type: cell-based, human; conditions: 24 h
K-562 cells [4] = test: Apoptosis, annexin V-FITC/PI flow cytometry; assay type: cell-based, human; conditions: 24 h
[5] = system: Bcl-2, Bax, and cleaved caspases (3, 8, and 9) in A549 cells; test: Western blotting, apoptosis markers; assay type: cell-based, human; conditions: 48 h, 1, 3 and 6 μM, western blot
T-47D = test: NCI in vitro five dose anticancer assay; assay type: cell-based, human; conditions: Breast cancer; T-47D; five dose assay
UO-31 = test: NCI in vitro five dose anticancer assay; assay type: cell-based, human; conditions: Renal cancer, five dose assay
OVCAR-3 = test: NCI in vitro five dose anticancer assay; assay type: cell-based, human; conditions: Ovarian cancer, five dose assay
[6] = system: p-PI3K, p-Akt, p-mTOR and p-GSK-3β in K-562 cells; test: Western blotting, PI3K/Akt/mTOR pathway; assay type: cell-based, human; conditions: 1, 3, or 6 μM, western blot, dose-dependent
BT-549 = test: NCI in vitro five dose anticancer assay; assay type: cell-based, human; conditions: Breast cancer, five dose assay
SF-295 = test: NCI in vitro five dose anticancer assay; assay type: cell-based, human; conditions: CNS cancer, five dose assay
[7] = system: p-PI3K, p-Akt, p-mTOR and p-GSK-3β in A549 cells; test: Western blotting, PI3K/Akt/mTOR pathway; assay type: cell-based, human; conditions: 1, 3, or 6 μM, western blot, dose-dependent
[8] = system: p53, p21, cyclin B1 and Cdc2 in K-562 cells; test: Western blotting, p53 and cell cycle regulators; assay type: cell-based, human; conditions: 1, 3 and 6 μM, western blot
RPMI-8226 = test: NCI in vitro five dose anticancer assay; assay type: cell-based, human; conditions: Leukemia, five dose assay
SK-OV-3 = test: NCI in vitro five dose anticancer assay; assay type: cell-based, human; conditions: Ovarian cancer, five dose assay
SN12C = test: NCI in vitro five dose anticancer assay; assay type: cell-based, human; conditions: Renal cancer, five dose assay
PI3K-γ = PI3K-γ (Homo sapiens, UniProt P48736); test: PI3K biochemical assay; conditions: read-out: IC50 (nM) PI3K-γ; ADP-Glo; ATP 10 μM
Sequence of PI3K-γ (P48736 whole entry): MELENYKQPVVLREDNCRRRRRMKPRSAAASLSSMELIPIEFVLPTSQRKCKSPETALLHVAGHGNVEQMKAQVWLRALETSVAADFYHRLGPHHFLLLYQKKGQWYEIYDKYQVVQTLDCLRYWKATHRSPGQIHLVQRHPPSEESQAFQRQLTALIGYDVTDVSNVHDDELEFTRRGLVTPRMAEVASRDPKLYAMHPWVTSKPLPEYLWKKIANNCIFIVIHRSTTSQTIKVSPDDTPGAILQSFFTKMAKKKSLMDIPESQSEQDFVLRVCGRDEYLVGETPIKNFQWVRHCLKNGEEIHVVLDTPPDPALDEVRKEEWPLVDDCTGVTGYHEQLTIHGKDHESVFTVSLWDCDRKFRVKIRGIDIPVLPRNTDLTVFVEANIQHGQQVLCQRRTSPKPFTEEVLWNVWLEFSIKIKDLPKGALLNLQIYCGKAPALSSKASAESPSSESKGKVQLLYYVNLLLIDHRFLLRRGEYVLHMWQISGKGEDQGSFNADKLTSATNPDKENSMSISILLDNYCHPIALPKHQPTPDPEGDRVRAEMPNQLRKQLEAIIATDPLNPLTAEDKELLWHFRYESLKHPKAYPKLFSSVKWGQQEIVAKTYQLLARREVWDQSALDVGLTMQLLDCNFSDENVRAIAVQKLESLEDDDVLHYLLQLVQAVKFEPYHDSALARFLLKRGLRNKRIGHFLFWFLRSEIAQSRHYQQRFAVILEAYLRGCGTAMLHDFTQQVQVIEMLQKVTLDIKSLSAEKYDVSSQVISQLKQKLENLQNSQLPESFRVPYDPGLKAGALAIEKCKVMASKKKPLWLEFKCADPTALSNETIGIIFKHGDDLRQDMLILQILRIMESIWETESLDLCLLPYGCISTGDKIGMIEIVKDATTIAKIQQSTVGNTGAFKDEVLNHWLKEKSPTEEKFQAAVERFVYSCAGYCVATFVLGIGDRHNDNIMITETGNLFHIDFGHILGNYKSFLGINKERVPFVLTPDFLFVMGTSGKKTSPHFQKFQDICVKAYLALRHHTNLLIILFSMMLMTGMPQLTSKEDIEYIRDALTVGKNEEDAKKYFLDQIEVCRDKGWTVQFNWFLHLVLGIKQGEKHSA

PI3K-δ = PI3K-δ (Homo sapiens, UniProt O00329); test: PI3K biochemical assay; conditions: read-out: IC50 (nM) PI3K-δ; ADP-Glo; ATP 10 μM
Sequence of PI3K-δ (O00329 whole entry): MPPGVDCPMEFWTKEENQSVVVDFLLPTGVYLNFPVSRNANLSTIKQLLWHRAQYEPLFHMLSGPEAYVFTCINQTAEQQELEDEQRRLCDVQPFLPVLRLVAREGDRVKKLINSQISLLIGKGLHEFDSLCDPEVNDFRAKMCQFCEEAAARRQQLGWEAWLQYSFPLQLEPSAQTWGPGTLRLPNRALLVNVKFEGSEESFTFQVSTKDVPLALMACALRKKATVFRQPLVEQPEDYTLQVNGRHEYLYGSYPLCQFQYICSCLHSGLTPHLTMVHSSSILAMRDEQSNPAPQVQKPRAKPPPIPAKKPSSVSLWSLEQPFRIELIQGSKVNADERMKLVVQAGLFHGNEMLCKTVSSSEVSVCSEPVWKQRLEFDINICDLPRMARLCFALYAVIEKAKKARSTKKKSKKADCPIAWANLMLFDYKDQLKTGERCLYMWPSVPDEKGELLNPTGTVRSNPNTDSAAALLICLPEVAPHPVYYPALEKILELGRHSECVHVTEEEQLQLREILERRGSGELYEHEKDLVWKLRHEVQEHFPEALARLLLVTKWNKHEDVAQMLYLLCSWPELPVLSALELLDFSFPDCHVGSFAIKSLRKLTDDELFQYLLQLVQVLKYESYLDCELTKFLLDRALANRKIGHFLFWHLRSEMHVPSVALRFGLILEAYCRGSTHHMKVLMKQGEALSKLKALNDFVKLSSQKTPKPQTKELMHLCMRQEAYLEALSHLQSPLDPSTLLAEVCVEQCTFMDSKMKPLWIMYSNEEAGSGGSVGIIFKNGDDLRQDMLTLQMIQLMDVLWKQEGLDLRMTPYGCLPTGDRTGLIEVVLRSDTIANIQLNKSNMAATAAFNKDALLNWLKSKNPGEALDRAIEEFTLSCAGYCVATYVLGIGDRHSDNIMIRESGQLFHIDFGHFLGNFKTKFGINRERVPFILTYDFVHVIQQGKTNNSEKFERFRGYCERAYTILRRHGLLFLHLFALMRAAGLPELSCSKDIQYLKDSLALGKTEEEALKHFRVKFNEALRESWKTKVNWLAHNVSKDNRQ
Sequence of PI3K-δ (P27986 whole entry partner): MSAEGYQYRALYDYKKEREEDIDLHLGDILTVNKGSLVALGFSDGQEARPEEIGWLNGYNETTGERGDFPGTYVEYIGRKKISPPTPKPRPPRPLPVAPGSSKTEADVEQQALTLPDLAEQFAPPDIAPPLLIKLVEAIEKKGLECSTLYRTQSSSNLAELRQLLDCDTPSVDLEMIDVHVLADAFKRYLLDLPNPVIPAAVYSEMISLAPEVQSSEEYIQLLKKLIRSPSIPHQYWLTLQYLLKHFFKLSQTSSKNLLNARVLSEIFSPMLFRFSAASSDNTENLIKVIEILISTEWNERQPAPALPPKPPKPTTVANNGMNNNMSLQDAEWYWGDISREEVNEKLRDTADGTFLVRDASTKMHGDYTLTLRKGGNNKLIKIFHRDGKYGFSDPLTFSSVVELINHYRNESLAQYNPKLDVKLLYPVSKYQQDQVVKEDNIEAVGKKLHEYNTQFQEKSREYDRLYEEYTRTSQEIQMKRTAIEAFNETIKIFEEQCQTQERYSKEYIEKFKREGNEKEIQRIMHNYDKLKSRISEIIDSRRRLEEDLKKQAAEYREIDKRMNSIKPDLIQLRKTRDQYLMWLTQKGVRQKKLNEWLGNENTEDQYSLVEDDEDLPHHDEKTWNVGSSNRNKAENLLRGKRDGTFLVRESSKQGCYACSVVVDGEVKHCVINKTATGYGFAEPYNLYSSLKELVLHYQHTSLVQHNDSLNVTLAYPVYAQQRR

HT29 = test: NCI in vitro five dose anticancer assay; assay type: cell-based, human; conditions: Colon cancer; HT29; five dose assay
PC-3 = test: NCI in vitro five dose anticancer assay; assay type: cell-based, human; conditions: Prostate cancer, five dose assay
HOP-62 = test: NCI in vitro five dose anticancer assay; assay type: cell-based, human; conditions: Non-small cell lung cancer, five dose assay
PI3K-α = PI3K-α (Homo sapiens, UniProt P42336); test: PI3K biochemical assay; conditions: read-out: IC50 (nM) PI3K-α; ADP-Glo; ATP 10 μM
Sequence of PI3K-α (P42336 whole entry): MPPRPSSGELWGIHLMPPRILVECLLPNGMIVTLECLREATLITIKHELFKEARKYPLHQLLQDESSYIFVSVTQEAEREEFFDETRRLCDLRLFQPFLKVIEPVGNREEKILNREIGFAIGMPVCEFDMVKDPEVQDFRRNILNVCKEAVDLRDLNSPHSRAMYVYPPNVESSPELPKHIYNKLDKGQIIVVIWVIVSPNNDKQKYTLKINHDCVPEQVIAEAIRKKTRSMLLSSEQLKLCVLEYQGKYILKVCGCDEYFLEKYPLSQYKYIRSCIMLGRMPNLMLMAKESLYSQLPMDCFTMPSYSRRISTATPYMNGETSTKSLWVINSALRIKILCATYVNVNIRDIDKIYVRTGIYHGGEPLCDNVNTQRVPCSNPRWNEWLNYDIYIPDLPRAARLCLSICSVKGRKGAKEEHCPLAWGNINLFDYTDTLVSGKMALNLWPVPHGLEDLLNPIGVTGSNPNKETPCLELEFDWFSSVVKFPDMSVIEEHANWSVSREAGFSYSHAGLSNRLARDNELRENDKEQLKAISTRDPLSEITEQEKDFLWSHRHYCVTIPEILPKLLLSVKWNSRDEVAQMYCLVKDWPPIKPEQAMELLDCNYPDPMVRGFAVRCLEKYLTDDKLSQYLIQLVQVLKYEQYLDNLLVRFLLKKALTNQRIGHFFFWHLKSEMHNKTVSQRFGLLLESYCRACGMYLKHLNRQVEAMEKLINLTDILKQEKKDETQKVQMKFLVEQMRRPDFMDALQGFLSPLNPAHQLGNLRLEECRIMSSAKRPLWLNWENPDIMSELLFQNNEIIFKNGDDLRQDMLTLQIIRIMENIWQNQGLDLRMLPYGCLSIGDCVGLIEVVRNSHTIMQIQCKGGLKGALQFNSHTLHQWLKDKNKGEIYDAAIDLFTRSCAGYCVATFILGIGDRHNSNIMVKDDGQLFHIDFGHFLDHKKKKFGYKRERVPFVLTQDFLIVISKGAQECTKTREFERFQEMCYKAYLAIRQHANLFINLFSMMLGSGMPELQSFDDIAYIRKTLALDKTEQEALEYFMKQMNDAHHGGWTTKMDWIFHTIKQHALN
Sequence of PI3K-α (P27986 whole entry partner): as the sequence (P27986 whole entry partner) above

SNB-19 = test: NCI in vitro five dose anticancer assay; assay type: cell-based, human; conditions: CNS cancer, five dose assay
SF-268 = test: NCI in vitro five dose anticancer assay; assay type: cell-based, human; conditions: CNS cancer, five dose assay
MALME-3M = test: NCI in vitro five dose anticancer assay; assay type: cell-based, human; conditions: Melanoma; MALME-3M; five dose assay
DU-145 = test: NCI in vitro five dose anticancer assay; assay type: cell-based, human; conditions: Prostate cancer, five dose assay
IGROV1 = test: NCI in vitro five dose anticancer assay; assay type: cell-based, human; conditions: Ovarian cancer; IGROV1; five dose assay
[9] = system: human lung adenocarcinoma A549; test: Trypan blue exclusion cytotoxicity assay; conditions: read-out: A549 (IC50 μM); trypan blue exclusion; 24 h; mean ± SD
HS 578T = test: NCI in vitro five dose anticancer assay; assay type: cell-based, human; conditions: Breast cancer; HS 578T; five dose assay
HL-60(TB) = test: NCI in vitro five dose anticancer assay; assay type: cell-based, human; conditions: Leukemia; HL-60(TB); five dose assay
K-562 = test: NCI in vitro five dose anticancer assay; assay type: cell-based, human; conditions: Leukemia; K-562; five dose assay

IC50 (PI3K-γ): 52 nM
IC50 (PI3K-δ): 438 nM
IC50 (PI3K-α): 248 nM
SMILES: COc1ccc(-c2cc(C(=O)NN=C(/C=C\c3ccc(Cl)cc3)c3ccc(N)cc3)c3ccccc3n2)cc1 [Compound 9i, N’-((Z)-1-(4-Aminophenyl)-3-(4-chlorophenyl)allylidene)-2-(4-methoxphenyl)quinoline-4-carbohydrazide]
GI50 (UACC-62): 556 nM
percentage of apoptotic cells (A549 cells; 1 μM): 13.21%
percentage of apoptotic cells (A549 cells; 3 μM): 22.73%
percentage of apoptotic cells (A549 cells; 6 μM): 35.9%
proportion of apoptotic cells compared to control (A549 cells; 1, 3, or 6 μM, 24 h, data not shown): did not result in changes
GI50 (NCI-H226): 7.54 µM
GI50 (MDA-MB-468): 2950 nM
IC50 [1]: 1.9 µM and 1.91 µM
GI50 (M14): 1160 nM
pIC50 (A549 and K-562 cells): 5.28 to 5.72
GI50 (A498): 375 nM
levels of cleaved caspase 8 [2]: not change
levels of Bax ([2]; dose-dependent): increased
levels of cleaved caspase 3 ([2]; dose-dependent): increased
levels of cleaved caspase 9 ([2]; dose-dependent): increased
GI50 (HCT-116): 1410 nM
GI50 (SK-MEL-5): 701 nM
percentage of cells in the G2/M phase (K-562 cells [3]; 1 μM): 2.95%
percentage of cells in the G2/M phase (K-562 cells [3]; 3 μM): 30.7%
percentage of cells in the G2/M phase (K-562 cells [3]; 6 μM): 49.3%
percentage of apoptotic cells (K-562 cells [4]; 1 μM): 25.79%
percentage of apoptotic cells (K-562 cells [4]; 3 μM): 46.2%
percentage of apoptotic cells (K-562 cells [4]; 6 μM): 46.6%
levels of Bcl-2 [5]: decreased
levels of cleaved caspase 8 [5]: not altered
levels of Bax ([5]; dose-dependent): increased
levels of cleaved caspase 3 ([5]; dose-dependent): increased
levels of cleaved caspase 9 ([5]; dose-dependent): increased
GI50 (T-47D): 2700 nM
GI50 (UO-31): 1550 nM
GI50 (OVCAR-3): 462 nM
levels of phosphorylated Akt (at Ser473) [6]: decreases
levels of phosphorylated GSK-3β [6]: decreases
levels of phosphorylated PI3K (at Tyr458) [6]: decreases
levels of phosphorylated mTOR (at Ser2448) [6]: decreases
GI50 (BT-549): 2040 nM
GI50 (SF-295): 540 nM
levels of phosphorylated Akt (at Ser473) [7]: decreases
levels of phosphorylated GSK-3β [7]: decreases
levels of phosphorylated PI3K (at Tyr458) [7]: decreases
levels of phosphorylated mTOR (at Ser2448) [7]: decreases
expression of non-functional p53 [8]: no effect
expression of Cdc2 ([8]; dose dependent): attenuated
expression of cyclin B1 ([8]; dose dependent): attenuated
expression of p21 ([8]; dose dependent): significantly induced
GI50 (RPMI-8226): 3.86 µM
GI50 (SK-OV-3): 3.32 µM
GI50 (SN12C): 4.27 µM
GI50 (HT29): 1130 nM
GI50 (PC-3): 2030 nM
GI50 (HOP-62): 3.21 µM
GI50 (SNB-19): 5.54 µM
GI50 (SF-268): 2190 nM
GI50 (MALME-3M): > 100 µM
GI50 (DU-145): 3.16 µM
GI50 (IGROV1): 4.98 µM
IC50 [9]: 4 µM and 3.9 µM and 3.91 µM
GI50 (HS 578T): 1050 nM
GI50 (HL-60(TB)): 2540 nM
GI50 (K-562): 1050 nM
